Test results: US9579319B2 (Redx Pharma PLC, priority 2013, dated 2017)

system: Hedgehog signalling pathway; test: Gli-reporter NIH3T3 luciferase assay (Hedgehog pathway inhibition); assay type: cell-based; conditions: NIH3T3; Gli-reporter NIH-3T3 cells, recombinant mouse sonic hedgehog, 24 hours, luminescence; read-out: Category (Hedgehog pathway inhibition activity, IC50)
Description: In vitro biological evaluation of compounds of the invention was carried out using the procedure detailed below. The procedure provides activity data for the compounds of the invention against the Hedgehog signalling pathway. The activity is represented as IC50 values in Table 12 below.
The Gli-reporter NIH3T3 cell line (BPS Biosciences) was grown according to the suppliers recommendations. Briefly, cells were maintained in growth medium (DMEM supplemented with 10% calf serum, 1% Penicillin/Streptomycin, and 500 µg/mL of Geneticin) and grown at 37° C., 5% CO2. In order to passage cells they were first rinsed with phosphate buffered saline before the addition of 0.05% Trypsin/EDTA. Fresh growth media was added and the cells were transferred to a centrifuge tube, spun and resuspended at an appropriate cell density.
Gli-reporter NIH-3T3 cells were seeded at 20,000 cells/well into 96 well, poly-D-lysine coated white clear bottomed full area TC plates in growth media (without geneticin). Three wells were left with just media as cell free controls. Cells were then incubated for 24 hours at 37° C. in a 5% CO2.
Serial dilutions of the test compounds were prepared in 100% DMSO. 10 μl of compound or DMSO from each well was pipetted into a sterile, 0.5 ml deep well conical bottomed 96 well plate (intermediate plate). 190 μl of warmed assay media (Opti-MEM supplemented with 0.5% calf serum, 1% non-essential amino acids, 1 mM sodium pyruvate, 10 mM HEPES, 1% penicillin/Streptomycin) was then added to each well and mixed five times at 180 μl by electronic pipette to ensure homogeneity of the compound solution. This 1:20 dilution gives a top concentration of 50 μM in 5% DMSO, 95% assay media. 10 μl was pipetted from each well of the intermediate plate into a second deep well sterile plate. 490 μl of warm assay media was then added to each well and mixed five times at 300 μl. This gives a final top concentration of 1 μM in 0.1% DMSO.
After the 24 hour incubation, media was carefully removed by pipette and replaced with 45 μl of compound dilutions in triplicate. This was incubated for one hour at 37° C. in a 5% CO2. After an hour, 5 μl 10 μg/mL recombinant mouse sonic hedgehog (R&D Systems) was added to each well and the plates were incubated for a further 24 hours at 37° C., 5% CO2.
After 24 hours, plates were removed from the incubator and left to acclimatise to room temperature for 20 minutes. 50 μl of OneGLO assay reagent (Promega) was then added to each well and the plates gently shaken for a further 30 minutes. Plates were then read for luminescence on the EnVision plate reader (PerkinElmer).

IC50	Compound
10 to 200 nM	COc1cccc(CN(C)C2CCN(c3nnc(-c4ccnn4C)c4ccccc34)CC2)c1 [Example 62, N-[(3-methoxyphenyl)methyl]-N-methyl-1-[4-(2-methylpyrazol-3-yl)phthalazin-1-yl]piperidin-4-amine]
10 to 200 nM	Cn1nccc1-c1nnc(N2CCC(NCc3ccccc3F)CC2)c2ccccc12 [Example 72, N-[(2-fluorophenyl)methyl]-1-[4-(2-methylpyrazol-3-yl)phthalazin-1-yl]piperidin-4-amine]
< 10 nM	CSc1ccccc1CN(C)C1CCN(c2nnc(-c3ccnn3C)c3ccccc23)CC1 [Example 28, N-methyl-1-[4-(2-methylpyrazol-3-yl)phthalazin-1-yl]-N-[(2-methylsulfanylphenyl)methyl]piperidin-4-amine]

Second part, the compound before the results:

Compound	IC50
CN(Cc1ccccc1OC(F)F)C1CCN(c2nnc(-c3ccnn3C)c3ccccc23)CC1 [Example 12, N-[[2-(difluoromethoxy)phenyl]methyl]-N-methyl-1-[4-(2-methylpyrazol-3-yl)phthalazin-1-yl]piperidin-4-amine]	10 to 200 nM
CN(Cc1ccc(F)cc1C(F)(F)F)C1CCN(c2nnc(-c3ccnn3C)c3ccccc23)CC1 [Example 78, N-[[4-fluoro-2-(trifluoromethyl)phenyl]methyl]-N-methyl-1-[4-(2-methylpyrazol-3-yl)phthalazin-1-yl]piperidin-4-amine]	< 10 nM
Cn1nccc1-c1nnc(N2CCC(NC(=O)Nc3cccc(F)c3)CC2)c2ccccc12 [Example 16, 1-(3-fluorophenyl)-3-[1-[4-(2-methylpyrazol-3-yl)phthalazin-1-yl]-4-piperidyl]urea]	< 10 nM
Cn1nccc1-c1nnc(N2CCC(NCc3ccc(C#N)cc3)CC2)c2ccccc12 [Example 68, 4-[[[1-[4-(2-methylpyrazol-3-yl)phthalazin-1-yl]-4-piperidyl]amino]methyl]benzonitrile]	200 to 2000 nM
Cn1nccc1-c1nnc(N2CCC(NCc3ccc(F)cc3C(F)(F)F)CC2)c2ccccc12 [Example 79, N-[[4-fluoro-2-(trifluoromethyl)phenyl]methyl]-1-[4-(2-methylpyrazol-3-yl)phthalazin-1-yl]piperidin-4-amine]	< 10 nM
Cn1nccc1-c1nnc(N2CCC(NC(=O)Nc3ccc(C#N)cc3)CC2)c2ccccc12 [Example 32, 1-(4-cyanophenyl)-3-[1-[4-(2-methylpyrazol-3-yl)phthalazin-1-yl]-4-piperidyl]urea]	< 10 nM
Cn1nccc1-c1nnc(N2CCC(NCc3ccc(C(F)(F)F)cc3)CC2)c2ccccc12 [Example 37, 1-[4-(2-methylpyrazol-3-yl)phthalazin-1-yl]-N-[[4-(trifluoromethyl)phenyl]methyl]piperidin-4-amine]	10 to 200 nM

same assay, conditions: NIH3T3; Gli-reporter NIH-3T3 cells, recombinant mouse sonic hedgehog, 24 hours, luminescence; read-out: Gli Luc nM (IC50)

IC50	Compound
7.85 nM	Cn1nccc1-c1nnc(N2CCC(NCc3ccc(F)cc3C(F)(F)F)CC2)c2ccccc12 [Example 79, N-[[4-fluoro-2-(trifluoromethyl)phenyl]methyl]-1-[4-(2-methylpyrazol-3-yl)phthalazin-1-yl]piperidin-4-amine]

same assay, conditions: NIH3T3; Gli-reporter NIH-3T3 cells, recombinant mouse sonic hedgehog, 24 hours, luminescence; read-out: Gli luc IC50

IC50	Compound
10 to 200 nM	CN(Cc1ccc(F)cc1C(F)(F)F)C1CCN(c2nnc(-c3ccnn3C)c3c2CCC3)CC1 [Example 132, N-[[4-fluoro-2-(trifluoromethyl)phenyl]methyl]-N-methyl-1-[1-(2-methylpyrazol-3-yl)-6,7-dihydro-5H-cyclopenta[d]pyridazin-4-yl]piperidin-4-amine]
> 200 nM	COc1cc(-c2nnc(N3CCC(NCc4ccc(F)cc4C(F)(F)F)CC3)c(C)c2C)ccn1 [Example 121, N-[[4-fluoro-2-(trifluoromethyl)phenyl]methyl]-1-[6-(2-methoxy-4-pyridyl)-4,5-dimethyl-pyridazin-3-yl]piperidin-4-amine]
10 to 200 nM	CN(Cc1ccc(F)cc1Cl)C1CCN(c2nnc(-c3ccnn3C)c3ccccc23)CC1 [Example 158, N-[(2-chloro-4-fluoro-phenyl)methyl]-N-methyl-1-[4-(2-methylpyrazol-3-yl)phthalazin-1-yl]piperidin-4-amine]
10 to 200 nM	Cc1c(-c2ccnn2C)nnc(N2CCC(N(C)Cc3cccc(OC(F)(F)F)c3)CC2)c1C [Example 83, 1-[4,5-dimethyl-6-(2-methylpyrazol-3-yl)pyridazin-3-yl]-N-methyl-N-[[3-(trifluoromethoxy)phenyl]methyl]piperidin-4-amine]
< 10 nM	CN(Cc1cccnc1C(F)(F)F)C1CCN(c2nnc(-c3ccnn3C)c3ccccc23)CC1 [Example 157, N-methyl-1-[4-(2-methylpyrazol-3-yl)phthalazin-1-yl]-N-[[2-(trifluoromethyl)-3-pyridyl]methyl]piperidin-4-amine]
10 to 200 nM	Cc1c(-c2ccnn2C)nnc(N2CCC(N(C)C(=O)Nc3ccccc3F)CC2)c1C [Example 126, 1-[1-[4,5-dimethyl-6-(2-methylpyrazol-3-yl)pyridazin-3-yl]-4-piperidyl]-3-(2-fluorophenyl)-1-methyl-urea]
< 10 nM	Cc1nc(C(F)(F)F)c(CN(C)C2CCN(c3nnc(-c4ccnn4C)c4ccccc34)CC2)s1 [Example 96, N-methyl-1-[4-(2-methylpyrazol-3-yl)phthalazin-1-yl]-N-[[2-methyl-4-(trifluoromethyl)thiazol-5-yl]methyl]piperidin-4-amine]

The remaining lines, values behind:

Compound	IC50
Cc1c(-c2ccnn2C)nnc(N2CCC(N(C)Cc3ccccc3C#N)CC2)c1C [Example 87, 2-[[[1-[4,5-dimethyl-6-(2-methylpyrazol-3-yl)pyridazin-3-yl]-4-piperidyl]-methyl-amino]methyl]benzonitrile]	10 to 200 nM
Cc1cc(-c2nnc(N3CCC(NCc4ccc(F)cc4C(F)(F)F)CC3)c(C)c2C)ccn1 [Example 122, 1-[4,5-dimethyl-6-(2-methyl-4-pyridyl)pyridazin-3-yl]-N-[[4-fluoro-2-(trifluoromethyl)phenyl]methyl]piperidin-4-amine]	> 200 nM
CSc1nccc(CN(C)C2CCN(c3nnc(-c4ccnn4C)c(C)c3C)CC2)n1 [Example 93, 1-[4,5-dimethyl-6-(2-methylpyrazol-3-yl)pyridazin-3-yl]-N-methyl-N-[(2-methylsulfanylpyrimidin-4-yl)methyl]piperidin-4-amine]	> 200 nM
CN(Cc1ccccc1OC(F)(F)F)C1CCN(c2nnc(-c3ccnn3C)c3ccccc23)CC1 [Example 162, N-methyl-1-[4-(2-methylpyrazol-3-yl)phthalazin-1-yl]-N-[[2-(trifluoromethoxy)phenyl]methyl]piperidin-4-amine]	< 10 nM
CN(Cc1cccc(C#N)c1)C1CCN(c2nnc(-c3ccnn3C)c3ccccc23)CC1 [Example 168, 3-[[methyl-[1-[4-(2-methylpyrazol-3-yl)phthalazin-1-yl]-4-piperidyl]amino]methyl]benzonitrile]	10 to 200 nM
CN(Cc1ccc(F)cc1C(F)(F)F)CC1CCN(c2nnc(-c3ccnn3C)c3ccccc23)C1 (centres unmarked) [Example 139, 1-[4-fluoro-2-(trifluoromethyl)phenyl]-N-methyl-N-[[1-[4-(2-methylpyrazol-3-yl)phthalazin-1-yl]pyrrolidin-3-yl]methyl]methanamine]	10 to 200 nM
Cn1nccc1-c1nnc(N2CCC(NCc3ccccc3S(C)(=O)=O)CC2)c2ccccc12 [Example 115, 1-[4-(2-methylpyrazol-3-yl)phthalazin-1-yl]-N-[(2-methylsulfonylphenyl)methyl]piperidin-4-amine]	10 to 200 nM
Fc1ccc(CNC2CCN(c3nnc(N4CCOCC4)c4ccccc34)CC2)c(C(F)(F)F)c1 [Example 145, N-[[4-fluoro-2-(trifluoromethyl)phenyl]methyl]-1-(4-morpholinophthalazin-1-yl)piperidin-4-amine]	> 200 nM
Cc1c(-c2ccnn2C)nnc(N2CCC(NC(=O)NC3(C(F)(F)F)CC3)CC2)c1C [Example 108, 1-[1-[4,5-dimethyl-6-(2-methylpyrazol-3-yl)pyridazin-3-yl]-4-piperidyl]-3-[1-(trifluoromethyl)cyclopropyl]urea]	10 to 200 nM
CN(Cc1ccc(F)cc1C(F)(F)F)C1CCN(c2nnc(-c3ccnn3C)c3ncccc23)CC1 [Example 130, N-[[4-fluoro-2-(trifluoromethyl)phenyl]methyl]-N-methyl-1-[8-(2-methylpyrazol-3-yl)pyrido[2,3-d]pyridazin-5-yl]piperidin-4-amine]	> 200 nM
Cc1c(-c2ccnn2C)nnc(N2CCC(N(C)C(=O)NC(C)(C)C)CC2)c1C [Example 152, 3-tert-butyl-1-[1-[4,5-dimethyl-6-(2-methylpyrazol-3-yl)pyridazin-3-yl]-4-piperidyl]-1-methyl-urea]	> 200 nM
